Experiments:
[1] = scan speed 2° C./min, 20 to 120° C.; FIG. 6
[2] = Measurement of specific surface (nitrogen-absorption isotherm, BET method); type: physicochemical; conditions: Sodium Salt; for Specific surface: BET method, nitrogen absorption at 77 K after vacuum degassing at 50° C.; for Specific surface, relative comparison: relative to the freeze-dried product
Method: Measurement of Specific Surface:
As for each of amorphous substances of 2-[[4-(3-methoxypropoxy)-3-methylpyridine-2-yl]methylsulfinyl]-1H-benzimidazole sodium salt obtained by freeze-drying (Reference example 2), heat-drying (Example 3), respectively, the nitrogen-absorption isotherms were measured at liquid nitrogen temperature (77 K) by a high accuracy full automatic gas absorption equipment “BELSORP 36” (prepared by Japan Bell) after vacuum degassing at 50° C. These isotherms were analyzed by BET method to obtain the specific surface.

[3] = Measurement of particle size distribution by laser diffractometry (Microtrac X100); type: physicochemical; conditions: Sodium Salt; for particle size distribution: Microtrac X100, FIG. 4 and FIG. 5; for 90% cumulative diameter: calculated by measurement of the particle size distribution
Method: The measurement of particle size distribution by laser diffractometry can be conducted, for example, by using “Microtrac X100” (made by Leeds And Northrup). In the case where the particle size distribution of the amorphous substance of sulfoxide derivative (I) or the salt thereof, which is prepared by conducting the above-mentioned heat-drying, is measured by the laser diffractometry, the amorphous substance of sulfoxide derivative (I) or the salt thereof has 50 μm or less, preferably 30 μm or less of average particle diameter, and 80 μm or less, preferably 50 μm or less of 90% cumulative diameter.

Row | Structure (SMILES) | temperature at which the acetone starts to be effectively decreased [1] [°C] | temperature at which the weight starts to be decreased [1] [°C] | Specific surface [2] [m^2/g] | Specific surface, relative comparison [2] | particle size distribution [3] | 90% cumulative diameter [3] [μm]
1 | CC(C)=O.COCCCOc1ccnc(C[S+]([O-])c2nc3ccccc3[n-]2)c1C.[Na+] (stereo not shown) [Acetone Complex of 2-[[4-(3-methoxypropoxy)-3-methylpyridine-2-yl]methylsulfinyl]-1H-benzimidazole Sodium Salt] | ≥ 76.7 | ≥ 65.7 | – | – | – | –
2 | COCCCOc1ccnc(C[S+]([O-])c2nc3ccccc3[nH]2)c1C.[Na] (stereo not shown) [The freeze-dried product, 2-[[4-(3-methoxypropoxy)-3-methylpyridine-2-yl]methylsulfinyl]-1H-benzimidazole Sodium Salt] | – | – | 2.3 | 1.00 | broad | 192.3
3 | COCCCOc1ccnc(C[S+]([O-])c2nc3ccccc3[nH]2)c1C.[Na] (stereo not shown) [The heat-dried product, 2-[[4-(3-methoxypropoxy)-3-methylpyridine-2-yl]methylsulfinyl]-1H-benzimidazole Sodium Salt] | – | – | 1.6 | 0.70 | sharp | 18.0

Source: patent US7754887B2, “Process for production of sulfoxide derivatives or salts thereof in the amorphous state” (EISAI R&D Management Co., Ltd., priority 2003, dated 2010)
